For 24 compounds, IC50 results are on record in US12459921B2, “Isoindoline compound, preparation method, pharmaceutical composition and use thereof” (SHANGHAI INSTITUTE OF MATERIA MEDICA, CHINESE ACADEMY OF …, priority 2018, dated 2025).

The structures appear in SMILES notation.

The subject of this assay is MM.1S cells. The assay is described as follows: Inhibitory effect on the proliferation of MM.1S, MTS cell viability test. The class given is cell-based. Particulars: Homo sapiens, MM1.S, 168 h, multiple myeloma MM.1S cells, 7 days incubation, read-out: Tumor cell inhibitory activity. The method, boiled down:
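Viability measured by MTS (OD490 minus OD690 background, 3-4 h) after a 7-day exposure of 20,000 MM.1S cells/well to 5-fold serially diluted compound, 0.2% DMSO final. Inhibition calculated relative to DMSO wells; IC50 curve-fitted, averaged over three repeats.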
(In general: Tetrazolium assays rely on reduction of a dye to a coloured formazan, in cell work by metabolically active cells.)

For `CCc1cc(COCCCCOc2cccc3c2CN(C2CCC(=O)NC2=O)C3=O)c2ccccc2n1` (stereo not drawn) [Example 214, 3-(4-(4-((2-ethylquinoline-4-)methoxy)butoxy)-1-oxoisoindoline-2-)piperidine-2,6-dione], the IC50 lay within 0.1 to 1 µM.
To `O=C1CCC(N2Cc3c(CCCCN4CCN(c5ccccc5Cl)CC4)cccc3C2=O)C(=O)N1` (stereo not drawn) [Example 215, 3-(4-(4-(4-(2-chlorophenyl)piperazine-1-yl)butyl)-1-oxoisoindoline-2-yl) piperidine-2,6-dione] belongs less than 0.1 µM.
To `O=C1CCC(N2Cc3c(CCCCN4CCN(c5ccccc5[N+](=O)[O-])CC4)cccc3C2=O)C(=O)N1` (stereo not drawn) [Example 216, 3-(4-(4-(4-(2-nitrophenyl)piperazine-1-yl)butyl)-1-oxoisoindoline-2-yl) piperidine-2,6-dione] belongs less than 0.1 µM.
On to `Cc1ccccc1N1CCN(CCCCc2cccc3c2CN(C2CCC(=O)NC2=O)C3=O)CC1` (stereo not drawn) [Example 217, 3-(1-oxo-4-(4-(4-(o-tolyl)piperazine-1-yl)butyl)isoindoline-2-yl)piperidine-2,6-dione], for which the IC50 was less than 0.1 µM.
To `O=C1CCC(N2Cc3c(CCCCN4CCN(c5ccccc5F)CC4)cccc3C2=O)C(=O)N1` (stereo not drawn) [Example 218, 3-(4-(4-(4-(2-fluorophenyl)piperazine-1-yl)butyl)-1-oxoisoindoline-2-yl)piperidine-2,6-dione] belongs less than 0.1 µM; to `O=C1CCC(N2Cc3c(CCCCN4CCN(c5ccccc5C(F)(F)F)CC4)cccc3C2=O)C(=O)N1` (stereo not drawn) [Example 219, 3-(1-oxo-4-(4-(4-(2-(trifluoromethyl)phenyl)piperazine-1-yl)butyl)isoindoline-2-yl)piperidine-2,6-dione], less than 0.1 µM; to `O=C1CCC(N2Cc3c(CCCCN4CCN(c5cccc(C(F)(F)F)c5)CC4)cccc3C2=O)C(=O)N1` (stereo not drawn) [Example 220, 3-(1-oxo-4-(4-(4-(3-(trifluoromethyl)phenyl)piperazine-1-yl)butyl)isoindoline-2-yl)piperidine-2,6-dione], less than 0.1 µM.
With `O=C1CCC(N2Cc3c(CCCCN4CCN(c5ccc(Cl)cc5Cl)CC4)cccc3C2=O)C(=O)N1` (stereo not drawn) [Example 222, 3-(4-(4-(4-(2,4-dichlorophenyl)piperazine-1-yl)butyl)-1-oxoisoindoline-2-yl)piperidine-2,6-dione], the IC50 is less than 0.1 µM.
With `O=C1CCC(N2Cc3c(CCCCN4CCN(c5cc(Cl)cc(Cl)c5)CC4)cccc3C2=O)C(=O)N1` (stereo not drawn) [Example 223, 3-(4-(4-(4-(3,5-dichlorophenyl)piperazine-1-yl)butyl)-1-oxoisoindoline-2-yl) piperidine-2,6-dione], the IC50 is less than 0.1 µM.
Consider `COc1ccccc1N1CCN(CCCCc2cccc3c2CN(C2CCC(=O)NC2=O)C3=O)CC1` (stereo not drawn) [Example 224, 3-(4-(4-(4-(2-methoxyphenyl)piperazine-1-yl)butyl)-1-isoindoline-2-yl)piperidine-2,6-dione], for which the IC50 is less than 0.1 µM.
To `O=C1CCC(N2Cc3c(CCCCCN4CCN(c5cccc6ccsc56)CC4)cccc3C2=O)C(=O)N1` (stereo not drawn) [Example 225, 3-(4-(5-(4-(benzothiophene-7-yl)piperazin-1-yl)pentyl)-1-oxoisoindoline-2-yl)piperidine-2,6-dione] belongs 1 to 20 µM; to `O=C1CCC(N2Cc3c(CCCCN4CCC(c5noc6cc(F)ccc56)CC4)cccc3C2=O)C(=O)N1` (stereo not drawn) [Example 227, 3-(4-(4-(4-(6-fluorobenzisoxazole-3-yl)piperidin-1-yl)butyl)-1-oxoisoindoline-2-yl)piperidine-2,6-dione], 1 to 20 µM.
To `O=C1CCC(N2Cc3c(CCCCN4CCN(c5noc6ccccc56)CC4)cccc3C2=O)C(=O)N1` (stereo not drawn) [Example 228, 3-(4-(4-(4-(benzisoxazole-3-yl)piperazine-1-yl)butyl)-1-oxoisoindoline-2-yl)piperidine-2,6-dione] belongs 1 to 20 µM.
Regarding `O=C1CCC(N2Cc3c(CCCCN4CCN(c5cc(Cl)ccc5Cl)CC4)cccc3C2=O)C(=O)N1` (stereo not drawn) [Example 229, 3-(4-(4-(4-(2,5-dichlorophenyl)piperazine-1-yl)butyl)-1-oxoisoindoline-2-yl) piperidine-2,6-dione], the IC50 lay within 0.1 to 1 µM.
To `O=C1CCC(N2Cc3c(CCCCN4CCN(c5nsc6ccccc56)CC4)cccc3C2=O)C(=O)N1` (stereo not drawn) [Example 230, 3-(4-(4-(4-(benzisothiazol-3-yl)piperazine-1-yl)butyl)-1-oxoisoindoline-2-yl) piperidine-2,6-dione] belongs 1 to 20 µM; to `O=C1CCC(N2Cc3c(CCCCCN4CCN(c5noc6ccccc56)CC4)cccc3C2=O)C(=O)N1` (stereo not drawn) [Example 231, 3-(4-(5-(4-(benzisoxazole-3-yl)piperazin-1-yl)pentyl)-1-oxoisoindoline-2-yl) piperidine-2,6-dione], 1 to 20 µM.
To `O=C1CCC(N2Cc3c(CCCCCN4CCN(c5nsc6ccccc56)CC4)cccc3C2=O)C(=O)N1` (stereo not drawn) [Example 232, 3-(4-(5-(4-(benzisothiazol-3-yl)piperazin-1-yl)pentyl)-1-oxoisoindoline-2-yl) piperidine-2,6-dione] belongs 1 to 20 µM.
`O=C1CCC(N2Cc3c(CCCCCN4CCN(c5cc(Cl)ccc5Cl)CC4)cccc3C2=O)C(=O)N1` (stereo not drawn) [Example 233, 3-(4-(5-(4-(2,5-dichlorophenyl)piperazine-1-yl)pentyl)-1-oxoisoindoline-2-yl) piperidine-2,6-dione]: the IC50 was in the range of 0.1 to 1 µM.
`O=C1CCC(N2Cc3c(CCCCCN4CCN(c5ccc(Cl)c(Cl)c5)CC4)cccc3C2=O)C(=O)N1` (stereo not drawn) [Example 234, 3-(4-(5-(4-(3,4-dichlorophenyl)piperazine-1-yl)pentyl)-1-oxoisoindoline-2-yl)piperidine-2,6-dione]: the IC50 was 0.1 to 1 µM.
To `O=C1CCC(N2Cc3c(CCCCCN4CCN(c5ccc(Cl)cc5Cl)CC4)cccc3C2=O)C(=O)N1` (stereo not drawn) [Example 236, 3-(4-(5-(4-(2,4-dichlorophenyl)piperazine-1-yl)pentyl)-1-oxoisoindoline-2-yl)piperidine-2,6-dione] belongs 1 to 20 µM; to `O=C1CCC(N2Cc3c(CCCCCN4CCN(c5cc(Cl)cc(Cl)c5)CC4)cccc3C2=O)C(=O)N1` (stereo not drawn) [Example 237, 3-(4-(5-(4-(3,5-dichlorophenyl)piperazine-1-yl)pentyl)-1-oxoisoindoline-2-yl)piperidine-2,6-dione], 0.1 to 1 µM; to `O=C1CCC(N2Cc3c(OCCCN4CCN(c5cccc(Cl)c5Cl)CC4)cccc3C2=O)C(=O)N1` (stereo not drawn) [Example 238, 3-(4-(3-(4-(2,3-dichlorophenyl)piperazine-1-yl)propoxy)-1-oxoisoindoline-2-yl)piperidine-2,6-dione], 0.1 to 1 µM.
Take `O=C1CCC(N2Cc3c(OCCCCN4CCN(c5cccc6ccsc56)CC4)cccc3C2=O)C(=O)N1` (stereo not drawn) [Example 239, 3-(4-(4-(4-(benzothiophene-7-yl)piperazine-1-yl)butoxy)-1-oxoisoindoline-2-yl)piperidine-2,6-dione]: the IC50 is 1 to 20 µM.
As for `O=C1CCC(N2Cc3c(OCCCCN4CCN(c5cccc(Cl)c5Cl)CC4)cccc3C2=O)C(=O)N1` (stereo not drawn) [Example 240, 3-(4-(4-(4-(2,3-dichlorophenyl)piperazine-1-yl)butoxy)-1-oxoisoindoline-2-yl)piperidine-2,6-dione], the IC50 was in the range of 1 to 20 µM.
